Data reported in patent US4710492A, “3'-azido-2',3'-dideoxy-5-halouridine and its use in treating patients infected with retroviruses” (Yale University, priority 1986, dated 1987).
Where two headings read alike, the source gives them in different places.

What was measured:
[1] = system: Moloney Murine Leukemia Virus; experiment: Antiviral screening against Moloney Murine Leukemia Virus (MuLV) by XC-Assay; assay type: cell-based; conditions: read-out: ID50 (Moloney Murine Leukemia Virus)
Source text: Biological Activity Assay Procedure for Antiviral Screening Against Moloney Murine Leukemia Virus (MuLV) by XC-Assay
The XC assay system is an indirect method for quantitation of murine-leukemia virus (MuLV) originally described by V. Klement et al, Proc. Natl. Acad. Sci., 63, 753, (1969) and modified by W. Rowe et al, Virology, 42, 1136, (1970). This test is based on the development of syncytial changes in the XC cell line when it is co-cultivated with mouse fibroblast cells (SC-1 cells) productively infected with MuLV. The XC cell line was derived from a rat tumor induced by the prague strain of Rouse Sarcoma Virus (RSV) (J. Svoboda et al, Folia Biol., 9, 77, (1963)).
1E5 SC-1 cells were seeded, in Earls Minimum Essential Medium (EMEM)-10% Fetal Bovine Serum (FBS), onto 60 mm petri dishes. The following day, the cells were inoculated with 0.5 ml of a virus dilution containing 25 μg/ml of DEAE-dextran. The dishes were maintained for 1 hour at 37° C. in a humidified 5% CO2 incubator. The virus inoculum was then removed and replaced with 5 ml of medium containing appropriate concentration of the test compound (two dishes/concentration). Medium containing 5% FBS was added to the virus control dishes. The medium (with or without the test compound) was changed at 48 hours.
Five days after virus inoculation, the culture fluid was decanted and the cells were irradiated with a GE germicidal bulb for 30 seconds (1500-1800 ergs UV-light). Cultures were immediately overlaid with 2E5 XC cells in 5 ml of EMEM-10% FBS/dish. The medium was changed at 2 day intervals. Four days after XC cell addition, cultures were simultaneously fixed and stained with GEIMSA for 10 to 15 minutes.
Plaques were counted using an inverted microscopy as holes in the cell sheet containing syncytial cells, or as focal masses of multinucleated giant cells.
Calculation of % Inhibition/Concentration: [formula] ID50: Accumulative % Inhibition using Reed-Muench Method

HTLV-III/LAV/AAV = experiment: Antiviral activity against HTLV-III/LAV/AAV; assay type: cell-based; conditions: Human immunodeficiency virus 1; read-out: ID50 HTLV-III/LAV/AAV
HTLV III/LAV = conditions: in vitro; Mitsuya et al. 1985; cited from earlier work
[2] = SC1, XC-assay, SC-1 mouse fibroblast cells co-cultivated with XC cells, Reed-Muench Method

Row | SMILES | IC50 [1, 2] [nM] | IC50 (HTLV-III/LAV/AAV) [nM] | IC50 ([1]; SC1, Fibroblast) [nM] | HTLV III/LAV replication (HTLV III/LAV) | cytopathic effects of HTLV III/LAV (HTLV III/LAV)
1 | [N-]=[N+]=N[C@H]1C[C@H](n2cc(Br)c(=O)[nH]c2=O)O[C@@H]1CO [3'-N3 --BUdR, 3'-azido-2',3'-dideoxy-5-bromouridine] | 1500 | 2300 | – | – | –
2 | [N-]=[N+]=N[C@H]1C[C@H](n2cc(I)c(=O)[nH]c2=O)O[C@@H]1CO [3'-N3 --IUdR, 3'-azido-2',3'-dideoxy-5-iodouridine] | 3000 | – | – | – | –
3 | Cc1cn([C@H]2C[C@H](N=[N+]=[N-])[C@@H](CO)O2)c(=O)[nH]c1=O [3'-azido-3'-deoxythymidine] | – | 230 | 23 | inhibit HTLV III/LAV replication | block the cytopathic effects
